From patent publication US4940715A, “5H-pyrazolo[4,3-A] quinolizin-5-one compounds exhibiting therapeutic activities” (Kissei Pharmaceutical Co., Ltd., priority 1988, dated 1990) come the findings set out here.

The subject of assay [1] is IgG secreted into culture supernatant by BALB/c mouse spleen cells. As to the kind of experiment: Determination of IgG produced in in vitro culture of spleen cells (adoptive secondary immune response against DNP-As), ELISA. Type of assay: cell-based. The note with it: 96 h, spleen cells 5×10^6 cells/ml, 4 days, 37° C.; for inhibition at 10 µg/mL: 10 μg/ml. How it is done:
(§1) The antiallergic activities of the 5H-pyrazolo[4,3-a]quinolizin-5-one compounds of formula (I) are also confirmed by inhibition of the rat homologous passive cutaneous anaphylaxis (hereinafter referred to as PCA) reaction.
(§2) Determination of Igs produced in in vitro culture
(§3) BALB/c mice were immunized intraperitoneally with 5 μg of DNP-As adsorbed on 4 mg aluminum hydroxide gel. Four weeks after the immunization, the spleens were excised from the mice and 5×10^7 spleen cells were transferred intravenously into the recipient mice which had been exposed to 600 rad of X-ray irradiation. Immediately after the cell transfer, the recipients were then immunized intraperitoneally with 5 μg of DNP-As adsorbed on 4 mg aluminum hydroxide gel to induce adoptive secondary immune response. Further 4 weeks after the immunization of recipients, the spleens were excised from them and the spleen cell suspensions containing 5×10^6 cells/ml were cultured with or without a compound to be tested in 96-well micro-titer plates at 37° C. for 4 days. IgE and IgG secreted into the culture supernatant was each determined correspondingly by enzyme-linked immunosolvent assay and the inhibitory effect was calculated according to the following equation. [formula]

Assay [2] relates to IgE secreted into culture supernatant by BALB/c mouse spleen cells. As to the kind of experiment: Determination of IgE produced in in vitro culture of spleen cells (adoptive secondary immune response against DNP-As), ELISA. The note with it: 96 h, spleen cells 5×10^6 cells/ml, 4 days, 37° C.; for inhibition at 10 µg/mL: 10 μg/ml. Type of assay: cell-based. As for the experimental part: as §1, §2, §3

Structures are written as SMILES.

Usually inhibition stands for the share of the control response that was lost under treatment. Read a high inhibition as a response far below the control. Consider `CCc1nn(C(C)=O)c2c(C#N)c(=O)n3ccccc3c12` [S-31], for which the inhibition at 20 µg/mL in assay [1] (20 μg/ml) was 33%; in assay [2] (20 μg/ml) it was 75%.

For the compound `CCCc1nn(C(C)=O)c2c(C#N)c(=O)n3ccccc3c12` [S-26, 3-Acetyl-4-cyano-1-propyl-5H-pyrazolo[4,3-a]quinolizin-5-one], the inhibition at 10 µg/mL stood at 18% in assay [1] and 55% in assay [2].

In the case of `CC(=O)n1nc(CC(C)C)c2c1c(C#N)c(=O)n1ccccc21` [S-38], the inhibition at 10 µg/mL in assay [1] stood at 4%; in assay [2] it was 40%.
